Counter-ions that a name gives are not always drawn.

One test addresses T1, MMP-1 (Homo sapiens, UniProt P03956).
T1 sequence (P03956 100-469): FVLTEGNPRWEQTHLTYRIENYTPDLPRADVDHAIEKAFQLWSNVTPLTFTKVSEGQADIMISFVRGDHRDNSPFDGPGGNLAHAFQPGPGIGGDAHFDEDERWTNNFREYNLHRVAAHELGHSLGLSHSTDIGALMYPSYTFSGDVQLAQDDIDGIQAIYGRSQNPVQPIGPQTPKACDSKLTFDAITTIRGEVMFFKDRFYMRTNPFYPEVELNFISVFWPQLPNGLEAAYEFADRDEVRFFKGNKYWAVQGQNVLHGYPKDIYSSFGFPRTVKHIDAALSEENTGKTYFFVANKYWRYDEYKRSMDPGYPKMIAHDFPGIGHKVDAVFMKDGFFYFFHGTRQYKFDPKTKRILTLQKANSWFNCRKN
In words: MMP-1 inhibition (thiopeptide or fluorescent peptide substrate). It is filed as biochemical. The following applies: for IC50: plain number = IC50; for inhibition at 10 µM: read-out: IC50 (nM) or % Inhibition (µM) MMP-1. As to the method: (§1) The enzyme activity is measured by the rate of the color increase. The thiopeptide substrate is made up fresh as a 20 mM stock in 100% DMSO and the DTNB is dissolved in 100% DMSO as a 100 mM stock and stored in the dark at room temperature. Both the substrate and DTNB are diluted together to 1 mM with substrate buffer (50 mM HEPES pH 7.5, 5 mM CaCl2) before use. The stock of enzyme is diluted with buffer (50 mM HEPES, pH 7.5, 5 mM CaCl2, 0.02% Brij) to the desired final concentration.
(§2) Alternatively, a fluorescent peptide substrate is used. In this test procedure, the peptide substrate contains a fluorescent group and a quenching group. Upon cleavage of the substrate by an MMP, the fluorescence that is generated is quantitated on the fluorescence plate reader. The assay is run in HCBC assay buffer (50mM HEPES, pH 7.0, 5 mM Ca^+2, 0.02% Brij, 0.5% Cysteine), with human recombinant MMP-1, MMP-9, or MMP-13. The substrate is dissolved in methanol and stored frozen in 1 mM aliquots. For the assay, substrate and enzymes are diluted in HCBC buffer to the desired concentrations. Compounds are added to the 96 well plate containing enzyme and the reaction is started by the addition of substrate.
(§3) For either the thiopeptide or fluorescent peptide test procedures, the slope of the line is calculated and represents the reaction rate. The linearity of the reaction rate is confirmed (r^2 >0.85). The mean (x±sem) of the control rate is calculated and compared for statistical significance (p<0.05) with drug-treated rates using Dunnett's multiple comparison test.

For the next test, the target named is MMP-9 (Homo sapiens, UniProt P14780). In words: MMP-9 inhibition (thiopeptide or fluorescent peptide substrate). It is filed as biochemical. As to the method: as §1, §2, §3
Chain of MMP-9 (P14780 94-707): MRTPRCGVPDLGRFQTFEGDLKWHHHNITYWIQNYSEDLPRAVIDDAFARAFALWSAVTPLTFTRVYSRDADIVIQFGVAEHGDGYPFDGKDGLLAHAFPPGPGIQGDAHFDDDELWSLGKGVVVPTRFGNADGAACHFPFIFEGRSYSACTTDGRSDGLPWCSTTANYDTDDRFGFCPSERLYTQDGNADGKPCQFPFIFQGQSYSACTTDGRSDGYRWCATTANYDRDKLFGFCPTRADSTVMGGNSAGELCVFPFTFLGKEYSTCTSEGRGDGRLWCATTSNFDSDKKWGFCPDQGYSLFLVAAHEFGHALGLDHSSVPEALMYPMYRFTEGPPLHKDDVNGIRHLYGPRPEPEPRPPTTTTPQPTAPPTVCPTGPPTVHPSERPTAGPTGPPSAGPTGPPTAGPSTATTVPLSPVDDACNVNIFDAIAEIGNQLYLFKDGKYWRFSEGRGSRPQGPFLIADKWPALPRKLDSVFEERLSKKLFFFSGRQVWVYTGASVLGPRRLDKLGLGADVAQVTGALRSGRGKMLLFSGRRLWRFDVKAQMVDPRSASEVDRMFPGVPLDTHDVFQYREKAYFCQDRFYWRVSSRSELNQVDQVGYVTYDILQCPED
The target of a further test is MMP-13 (Homo sapiens, UniProt P45452). In words: MMP-13 inhibition (thiopeptide or fluorescent peptide substrate). It is filed as biochemical. The procedure:
as §1, §2, §3

The target in test [1] is TNF-α converting enzyme (TACE) (Homo sapiens, UniProt P78536). In words: TACE inhibition (fluorescent peptidyl substrate). It is filed as biochemical. The settings on record: read-out: IC50 (nM) or % Inhibition (µM) TACE. As to the method:
Using 96-well black microtiter plates, each well receives a solution composed of 10 µL TACE (final concentration 1µg/mL), 70µL Tris buffer, pH 7.4 containing 10% glycerol (final concentration 10 mM), and 10 µL of test compound solution in DMSO (final concentration 1µM, DMSO concentration <1%) and incubated for 10 minutes at room temperature. The reaction is initiated by addition of a fluorescent peptidyl substrate (final concentration 100 µM) to each well and then shaking on a shaker for 5 sec.
The reaction is read (excitation 340 nm, emission 420 nm) for 10 min. and the increase in fluorescence over time is plotted as a linear line. The slope of the line is calculated and represents the reaction rate.
The linearity of the reaction rate is confirmed (r^2 >0.85). The mean (x±sem) of the control rate is calculated and compared for statistical significance (p<0.05) with drug-treated rates using Dunnett's multiple comparison test.

In another test the test system is THP-1 cells. In words: THP-1 soluble protein assay (LPS-stimulated human monocytic THP-1 cells). It is filed as cell-based. The following applies: LPS-stimulated THP-1 cells; for inhibition at 3 µM: Homo sapiens, read-out: % Inhib. @ 3µM THP. The source says:
Mitogenic stimulation of THP-1 cells cause differentiation into macrophage like cells with concomitant secretion of tumor necrosis factor (TNF-a) and TNF receptor (TNF-R p75/80 and TNF-R p55/60) and Interleukin-8 (IL-8), among other proteins. In addition, non-stimulated THP-1 cells shed both the p75/80 and the p55/60 receptors over time. The release of membrane bound TNF-α and possibly TNF-R p75/80 and TNF-R p55/60, but not IL-8, is mediated by an enzyme called TNF-a converting enzyme or TACE.
THP-1 cells (from ATCC) are a human monocytic cell line which were obtained from the peripheral blood of a person with acute monocytic leukemia. They can be grown in culture and differentiated into macrophage like cells by stimulation with mitogens.
Each vial of cells are cultured for about two weeks prior to being used for an assay and then are used for only 4 to 6 weeks to screen compounds.
Cell exposure to DMSO was limited to 0.1 % final concentration. […] Compounds can be evaluated for their effect on basal (non-stimulated) shedding of the receptors by replacing the LPS with […] of THP-1 media. Plates are placed into an incubator set at 5% CO2 and at 37°C. After 4 hours of incubation, […] of tissue culture supernatant (TCS) is removed for use in an TNF-a ELISA. Following 24 hours of incubation, […] of TCS is removed and used for analysis in TNF-R p75/80, TNF-R p55/60 and IL-8 ELISAs.
In addition, at the 24 hours timepoint, and the cells for each treatment group are collected by resuspension in 500 µl/well of THP-1 media and transferred into a FACS tube. […] The samples are run on a Becton Dickinson FaxCaliber FLOW cytometry machine and the amount of dye taken up by each cell is measured in the high red wavelength (FL3). Only cells with compromised membranes (dead or dying) can take up PI. The percent of live cells is calculated by the number of cells not stained with PI, divided by the total number of cells in the sample. The viability values calculated for the drug treated groups were compared to the viability value calculated for the vehicle treated mitogen stimulated group ("vehicle positive control") to determine the "percent change from control". This "percent change from control" value is an indicator of drug toxicity.
The quantity of soluble TNF-a, TNF-R p75/80 and TNF-R p55/60 and IL-8 in the TCS of the THP-1 cell cultures are obtained with commercially available ELISAs from R&D Systems, by extrapolation from a standard curve generated with kit standards. The number of cells that either take up or exclude PI are measured by the FLOW cytometry machine and visualized by histograms using commercially available Cytologic software for each treatment group including all controls.
Biological variability in the magnitude of the response of THP-1 cell cultures requires that experiments be compared on the basis of percent change from "vehicle positive control" for each drug concentration. Percent change in each soluble protein evaluated from the "vehicle positive control" was calculated for each compound concentration with the following formula: % Change =(pg/ml(compound) - pg/ml (veh pos control))/(pg/ml (veh pos control) - pg/ml(veh neg control))x 100 [formula]
For the soluble protein (TNF-a, p75/80, p55/60, IL-8) studies under stimulated conditions, the mean pg/ml of duplicate wells were determined and the results expressed as percent change from "vehicle positive control". For the soluble protein (p75/80 and p55/60 receptors) studies under non-stimulated conditions, the mean pg/ml of duplicate wells were determined and the results expressed as percent change from "vehicle positive control" utilizing the following formula: % Change =(pg/ml (compound neg control) - pg/ml (veh neg control)/(pg/ml (veh neg control))X 100 [formula]
IC50 values for each compound are calculated by non-linear regression analysis using customized software utilizing the JUMP statistical package.

Chain of TNF-α converting enzyme (TACE) (P78536 215-824, species assumed): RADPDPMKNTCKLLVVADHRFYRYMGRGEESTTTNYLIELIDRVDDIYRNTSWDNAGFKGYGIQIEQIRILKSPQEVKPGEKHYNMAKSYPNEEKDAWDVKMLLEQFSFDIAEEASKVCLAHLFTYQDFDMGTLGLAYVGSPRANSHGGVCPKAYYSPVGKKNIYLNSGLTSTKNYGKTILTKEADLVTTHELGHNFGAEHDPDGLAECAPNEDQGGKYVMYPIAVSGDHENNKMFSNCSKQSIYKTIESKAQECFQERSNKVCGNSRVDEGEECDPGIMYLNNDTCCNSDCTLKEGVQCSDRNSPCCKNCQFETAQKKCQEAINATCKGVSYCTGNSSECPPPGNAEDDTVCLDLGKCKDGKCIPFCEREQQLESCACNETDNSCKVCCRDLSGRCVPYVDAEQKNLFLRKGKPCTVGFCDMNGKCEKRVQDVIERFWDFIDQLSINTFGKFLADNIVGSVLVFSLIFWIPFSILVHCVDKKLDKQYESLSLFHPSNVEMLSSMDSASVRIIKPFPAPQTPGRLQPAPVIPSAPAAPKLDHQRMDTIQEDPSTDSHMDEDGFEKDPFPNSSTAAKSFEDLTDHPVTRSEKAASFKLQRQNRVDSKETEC

For the compound `CC#CCOc1ccc(S(=O)(=O)N(C)c2c(C)cc(-c3ccccc3)cc2C(=O)NO)cc1` [Example 43, 4-[(4-But-2-ynyloxy-benzenesulfonyl)-methyl-amino]-5-methyl-biphenyl-3-carboxylic acid hydroxyamide], the IC50 turned out to be 4240 nM at MMP-1, 578 nM against MMP-9, 518 nM against MMP-13 and 135 nM in test [1]. Moreover, the inhibition at 3 µM with THP-1 cells amounted to 76%.

On to `Cc1cc(Br)cc(C(=O)NO)c1N(C)S(=O)(=O)c1ccc(OCC#CCNC2CCC2)cc1` [Example 31, 5-Bromo-2-{[4-(4-cyclobutylamino-but-2-ynyloxy)-benzenesulfonyl]-methyl-amino}-N-hydroxy-3-methyl-benzamide], for which the inhibition at 10 µM at MMP-1 was 19%. Also, the results for the concentration for half-maximal inhibition (IC50) (on MMP-9; on MMP-13; in test [1]) were 301 nM, 724 nM and 44 nM, respectively. Besides, the inhibition at 3 µM in the test with THP-1 cells is 6%.

As to `Cc1cc(Br)cc(C(=O)NO)c1N(C)S(=O)(=O)c1ccc(OCC#CCOC2CCCCO2)cc1` (stereo not shown) [Example 69, 5-Bromo-N-hydroxy-3-methyl-2-(methyl-{4-[4-(tetrahydro-pyran-2-yloxy)-but-2-ynyloxy]-benzenesulfonyl}-amino)-benzamide], the inhibition at 10 µM on MMP-1 worked out at 25%. The half-inhibitory concentration (IC50) turned out to be 396 nM on MMP-9, 177 nM on MMP-13 and 30 nM in test [1]. Further, the inhibition at 3 µM in the test on THP-1 cells came to 19%.

Take `CCC#CCOc1ccc(S(=O)(=O)N(C)c2c(C)cc(Br)cc2C(=O)NO)cc1` [Example 55, 5-Bromo-N-hydroxy-3-methyl-2-[methyl-(4-pent-2-ynyloxy-benzenesulfonyl)-amino]-benzamide]: the IC50 against MMP-1 worked out at 1230 nM; at MMP-9, 800 nM; on MMP-13, 289 nM; in test [1], 12 nM. In the test with THP-1 cells, the inhibition at 3 µM came out at 48%.

Take “5-Bromo-2-[(4-butoxy-benzenesulfonyl)-methyl-amino]-N-hydroxy-3-methyl-benzamide [Example 39]”: the IC50 on MMP-1 was 2490 nM; against MMP-9, 21 nM; against MMP-13, 68 nM; in test [1], 67 nM. Moreover, in the test on THP-1 cells, the “% Inhib. @ 3µM THP” value came to 0%.

Consider `CC#CCOc1ccc(S(=O)(=O)N(Cc2ccccc2)c2c(C)cc(C)cc2C(=O)NO)cc1` [Example 64, 2-[Benzyl-(4-but-2-ynyloxy-benzenesulfonyl)-amino]-N-hydroxy-3,5-dimethyl-benzamide], for which the half-inhibitory concentration (IC50) on MMP-1 came out at 1190 nM; at MMP-9, 830 nM; at MMP-13, 312 nM; in test [1], 105 nM. The inhibition at 3 µM with THP-1 cells is 48%.

`CNCC#CCOc1ccc(S(=O)(=O)N(C)c2c(C)cc(Br)cc2C(=O)NO)cc1` [Example 32, 5-Bromo-N-hydroxy-3-methyl-2-{methyl-[4-(4-methylamino-but-2-ynyloxy)-benzenesulfonyl]-amino}-benzamide]: at MMP-1, the inhibition at 10 µM was 26%. Moreover, the half-inhibitory concentration (IC50) at MMP-9 stood at 643 nM; at MMP-13, 255 nM; in test [1], 58 nM. In addition, the inhibition at 3 µM in the test on THP-1 cells turned out to be 15%.

For the compound `COc1ccccc1C#CCOc1ccc(S(=O)(=O)N(C)c2c(C)cc(Br)cc2C(=O)NO)cc1` [Example 61, 5-Bromo-N-hydroxy-2-({4-[3-(2-methoxy-phenyl)-prop-2-ynyloxy]-benzenesulfonyl}-methyl-amino)-3-methyl-benzamide], the inhibition at 10 µM on MMP-1 was determined as 52%. Moreover, the half-inhibitory concentration (IC50) on MMP-9 amounted to 1510 nM; at MMP-13, 1200 nM; in test [1], 193 nM. Moreover, the inhibition at 3 µM in the test with THP-1 cells was found to be 0%.

In the case of `CC#CCOc1ccc(S(=O)(=O)N(C)c2c(CN3CCN(C)CC3)cc(-c3ccccc3)cc2C(=O)NO)cc1` [Example 76, 4-[(4-But-2-ynyloxy-benzenesulfonyl)-methyl-amino]-5-(4-methyl-piperazin-1-ylmethyl)-biphenyl-3-carboxylic acid hydroxyamide dihydro-chloride salt], the IC50 came to 1920 nM at MMP-1, 28 nM against MMP-9, 47 nM against MMP-13 and 42 nM in test [1]. The inhibition at 3 µM in the test with THP-1 cells was found to be 95%.

In the case of `Cc1cc(Br)cc(C(=O)NO)c1N(C)S(=O)(=O)c1ccc(OCC#CCN2CCCC2)cc1` [Example 65, 5-Bromo-N-hydroxy-3-methyl-2-{methyl-[4-(4-pyrrolidin-1-yl-but-2-ynyloxy)-benzenesulfonyl]-amino}-benzamide], the half-inhibitory concentration (IC50) against MMP-1 was 3350 nM; against MMP-9, 602 nM; against MMP-13, 537 nM; in test [1] it was 148 nM. Moreover, the inhibition at 3 µM in the test with THP-1 cells is 12%.

Regarding `CCCC#CCOc1ccc(S(=O)(=O)N(C)c2c(C)cc(Br)cc2C(=O)NO)cc1` [Example 57, 5-Bromo-2-[(4-hex-2-ynyloxy-benzenesulfonyl)-methyl-amino]-N-hydroxy-3-methyl-benzamide], the IC50 is 2360 nM on MMP-1, 232 nM against MMP-9, 358 nM at MMP-13 and 47 nM in test [1]. In the test on THP-1 cells, the inhibition at 3 µM is 11%.

(Values after patent EP1144369B1 (Wyeth Holdings Corporation, priority 1999, dated 2000).)
